Data reported in paper PMC8365597, “Structural Insights into Notum Covalent Inhibition” (Journal of Medicinal Chemistry, 2021).
Changes are numbered by the printed parent chain.

How the values were obtained:
[1] = target: T1, Notum (glycosylated) (Homo sapiens, UniProt Q6P988, C330S); assay: Thermal shift assay (differential scanning fluorimetry); assay type: binding; settings: for ΔTm at 1000 µM: compound 1 mM, read-out: max ΔTm; for ΔTm: compound ∼30 μM (31 μM in Figure 3)
T1 construct: comprising amino acids S81–T451 with a C330S mutation; inferred from HisTrap purification and imidazole elution; made in house
T1 sequence (Q6P988 81-451 C330S): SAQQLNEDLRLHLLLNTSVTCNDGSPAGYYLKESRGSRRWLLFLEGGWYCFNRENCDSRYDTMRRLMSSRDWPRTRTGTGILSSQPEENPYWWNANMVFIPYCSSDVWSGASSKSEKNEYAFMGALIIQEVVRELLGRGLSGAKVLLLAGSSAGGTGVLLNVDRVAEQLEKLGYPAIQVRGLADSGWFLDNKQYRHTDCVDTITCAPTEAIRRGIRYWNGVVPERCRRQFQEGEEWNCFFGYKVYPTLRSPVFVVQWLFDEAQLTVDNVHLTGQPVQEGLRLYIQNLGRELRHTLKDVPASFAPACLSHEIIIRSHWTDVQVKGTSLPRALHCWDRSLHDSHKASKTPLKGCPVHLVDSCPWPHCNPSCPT
Experimental: To further characterize Notum 1 binding, especially regarding the importance of the methyl ester warhead of 1, we used a thermal shift assay (also known as differential scanning fluorimetry) to compare the binding properties of 1 with its methyl-less acid form, 4-indolinyl-4-oxobutanoic acid (2). The thermal shift assay is a reliable label-free strategy to detect small molecule–protein binding by measuring protein melting temperature (Tm) changes.[39]−[41] A ΔTm of 2 °C or more indicates a small molecule binding to the target protein.[42] Notum was incubated with each compound in the presence of a fluorescent indicator, […], and the melting curves were recorded. 1 and 2, despite only differing by a single methyl group, yield highly different Notum melting curves (Figure 3). […] To establish the dose-dependent thermal shift responses, we performed a twofold serial dilution of the compounds.
Thermal shift assays were carried out in a semiskirted 96-well PCR plate (4-Titude). Each well contains 3 μg of glycosylated Notum protein, 3× SYPRO Orange dye (Thermo Fisher Scientific), and compounds at various concentrations and adjusted to a final volume of 50 μL with assay buffer (10 mM Hepes, pH7.4, 150 mM NaCl, and 2% DMSO). The samples were heated in an Mx3005p qPCR machine (Stratagene, Agilent Technologies) from room temperature at a rate of 1 °C/min for 74 cycles. Fluorescence changes were monitored with excitation and emission wavelengths at 492 and 610 nm, respectively.

[2] = target: T2, Notum (Homo sapiens, UniProt Q6P988, C330S); assay: Notum OPTS activity assay (cell-free biochemical)
T2 construct: comprising amino acids S81–T451 with a C330S mutation; inferred from HisTrap purification and imidazole elution; made in house
T2 sequence (Q6P988 81-451 C330S): T1 sequence (Q6P988 81-451 C330S)
Excerpt: Notum is a druggable target for Wnt signaling modulation.[23] We have previously determined a number of structures of Notum inhibitor complexes.[21],[22],[24],[25],[27],[28] All of these inhibitors bind noncovalently at the Notum enzyme catalytic pocket, where the natural substrate PAM binds. For searching covalent inhibitors, we used this noncovalent inhibitor binding information to limit compound docking into the enzyme active site. A virtual library of approximately 1.5 million compounds (ChemDiv) was filtered to generate 534,804 candidates for docking with a Notum structure (PDB code 6T2K) by Schrödinger Glide SP[37],[38] (Experimental Section). Resulting 1330 compounds with score −9 or better were subject to manual inspection and availability check. Finally, 952 compounds were purchased and experimentally screened using a cell-free trisodium 8-octanoyloxypyrene-1,3,6-trisulfonate (OPTS) biochemical assay.[22] […] The soaked crystals were harvested, and diffraction data were collected at the Diamond Light Source. The structures were determined by molecular replacement and refined with Refmac to screen for difference map peaks (Experimental Section). Chemical structures were then fitted into the difference maps with the aim of identifying covalent binders. Methyl 4-indolinyl-4-oxobutanoate (1) was identified as the only covalent binder to emerge from the screen (Figure 1). The 1 soaked crystal diffracted to 1.2 Å resolution with a P2_12_12_1 space group containing one enzyme-inhibitor complex in an asymmetric unit (for data collection and refinement statistics, see Supporting Information, Table S1). The overall structure maintained the characteristic apo Notum fold (Figure 1A), with a α/β hydrolase core domain (β1-8 strands and αB, C, and F helices) and a moveable lid domain (αA, D, and E helices). 1 is composed of an indole ring linked to an oxo-butyric acid methyl ester (Figure 1B). The methyl ester-hydrolyzed 1 (with PDB identifier RW8) is an excellent fit in the strong electron density that extends from the nucleophile residue S232 (Figure 1C). The electron density for the RW8 is of equally high quality to that of the surrounding Notum amino acids. […] The movable lid domain sits between the “open” (PDB code 4UYU) and “closed” (PDB code 4UZ1) conformations with obvious movements of the flexible β6_αD loop (Figure 1D). When superimposed with the natural substrate, PAM-bound, structure (PDB code 4UZQ), the RW8 overlaps with the PAM within the enzyme pocket (Figure 1E). The indole ring is located toward the bottom of the pocket, while the butyric acid head group is well-aligned with the PAM head (Figure 1E). Residues that form the base of the pocket (P287–I291) are positioned closer to the RW8 indole ring than in the PAM-bound structure. For example, P287 Cα has moved 1.7 Å toward the pocket center (Figure 1E) to optimize interactions with the RW8 indole ring, which extends less far into the pocket than PAM.
The Notum inhibitory potencies of these compounds were assessed by determining OPTS IC50 values, which can be used to compare the relative activities of covalent inhibitors under carefully regulated conditions.[43] […] When a phenyl ring is added to produce benzyl ester, 5, the IC50 is also slightly better than 1.
The OPTS activity assay has been described in previous reports.[24],[25] Briefly, the test compounds, the reporter substrate OPTS (Sigma), and the recombinant Notum protein were dispensed into 384-well plates (Greiner) using a Labcyte Echo 550 acoustic liquid handler and incubated 40 min in room temperature. The endpoint fluorescence was measured on a PheraSTAR FSX microplate reader with an excitation wavelength of 485 nm and an emission wavelength of 520 nm. The compound IC50 values were calculated from curves using a 4PL fit.

[3] = target: T3, Notum S232A mutant (Homo sapiens, UniProt Q6P988, C330S/S232A); assay: ESI-QTOF intact protein mass spectrometry detection of covalent binding, mutant control; settings: 10 mM Hepes pH 7.4, 150 mM NaCl, room temperature, 1 h
T3 construct: comprising amino acids S81–T451 with a C330S mutation; inferred from HisTrap purification and imidazole elution; made in house
T3 sequence (Q6P988 81-451 S232A/C330S): T1 sequence (Q6P988 81-451 C330S) with S152A
Experimental: (§1) However, the crystals were grown and soaked under low pH (pH 4.2) and high salt (1.5 M ammonium sulphate) conditions. To measure covalent bonding and stability under near physiological conditions, we incubated Notum (deglycosylated) protein with 1 in buffer containing 10 mM Hepes, pH 7.4, 150 mM NaCl at room temperature for 1 h. The mixture was then subjected to ultrahigh-performance liquid chromatography (uHPLC) reversed-phase chromatography separation, followed by electrospray ionization quadrupole time-of-flight (ESI-QTOF) mass spectrometry analysis. […] There are some other minor peaks that may reflect incomplete removal of glycans. […] The calculated MW of 1 is 233.27 Da, while its methyl ester-hydrolyzed form (RW8) is 201.22 Da. […] To establish whether the covalent link is dependent on the nucleophile serine residue, we further used the Notum S232A mutant as a control, observing a mass of 44103.32 Da (Figure 2C). The decrease of 15.79 Da compared to the wild type is consistent with the expected serine to alanine mutation.
(§2) Reversed-phase chromatography was performed in-line prior to mass spectrometry using an Agilent 1290 uHPLC system (Agilent Technologies inc. USA). […] Protein intact mass was determined using a 6530 ESI-QTOF mass spectrometer (Agilent Technologies Inc. USA). […]

[4] = target: T4, Notum (deglycosylated) (Homo sapiens, UniProt Q6P988, C330S); assay: ESI-QTOF intact protein mass spectrometry detection of covalent binding; settings: 10 mM Hepes pH 7.4, 150 mM NaCl, room temperature, 1 h
T4 construct: comprising amino acids S81–T451 with a C330S mutation; inferred from HisTrap purification and imidazole elution; made in house
T4 sequence (Q6P988 81-451 C330S): T1 sequence (Q6P988 81-451 C330S)
Experimental: as §1, §2

[5] = target: T2, Notum; assay: Cell-based TCF/LEF reporter (luciferase) assay, HEK293 STF cells with exogenous Wnt3a and Notum; settings: HEK293 TCF/LEF luciferase reporter cell line
Experimental: Selected compounds were further investigated for inhibition of Notum activity in a Wnt/β-catenin signaling pathway TCF/LEF reporter (luciferase) HEK293 cell line with exogenous Wnt3a and Notum.[22],[25]
The cellular Wnt signaling functional assay has been described in previous reports.[24],[25] Briefly, the reporter cell plate containing stable HEK293 STF cells[53] (1 × 10^4 cells per well in 384-well microplates) carrying the Super Top Flash firefly luciferase reporter was prepared (overnight at 37 °C). Compounds and Notum protein were mixed for 10 min before the recombinant Wnt-3A was added and incubated for 1 h at room temperature. Then, the mixture from the compound plates was added to reporter cell plates and incubation overnight at 37 °C. For luciferase assay, steady-glo luciferase assay buffer (20 μL, Promega) was applied to the cell plates using the CyBio, the luminescence was measured on a PHERAstar FSXmicroplate reader with an excitation wavelength of 458 nm and an emission wavelength of 520 nm.

[6] = mean ± s.d. (n = 4), 40 min incubation at room temperature

## COC(=O)CCC(=O)N1CCc2ccccc21 [Compound 1, Methyl 4-indolinyl-4-oxobutanoate]
[1]; compound 8 μM, start of significant changes
  ΔTm at 8 µM: 2 °C
[1]
  ΔTm at 1000 µM: 10 °C
  ΔTm: 5 °C
[2]; [6]
  IC50: 93 ± 20 nM
[3]
  mass change of treated Notum S232A mutant: no mass change
[4]
  mass increase of treated Notum compared to untreated Notum: 201.25 Da
[5]
  EC50: 530 ± 47 nM

## O=C(O)CCC(=O)N1CCc2ccccc21 [Compound 2, 4-indolinyl-4-oxobutanoic acid]
[1]
  ΔTm at 1000 µM: 2.5 °C
  ΔTm: 1 °C
[2]; [6]
  IC50: 3100 ± 920 nM

## CCOC(=O)CCC(=O)N1CCc2ccccc21 [Compound 3]
[2]; [6]
  IC50: 190 ± 45 nM
[5]
  EC50: 300 ± 60 nM

## O=C(CCC(=O)N1CCc2ccccc21)OCC(F)F [Compound 4]
[2]; [6]
  IC50: 12 ± 2.8 nM

## O=C(CCC(=O)N1CCc2ccccc21)OCc1ccccc1 [Compound 5]
[2]; [6]
  IC50: 64 ± 14 nM

## CC(C)OC(=O)CCC(=O)N1CCc2ccccc21 [Compound 6]
[2]; [6]
  IC50: 4300 ± 400 nM

## CC(C)(C)OC(=O)CCC(=O)N1CCc2ccccc21 [Compound 7]
[2]; @ 10 μM, read-out: Notum OPTS % inhibition (% I)
  inhibition at 10 µM: < 10%
[2]; [6]
  Notum OPTS IC50: inactive ^b
